In patent publication US20260263563A1, “Method of Treatment of a Thoracolumbar Deformity in a Human Subject with Achondroplasia” (Ascendis Pharma Growth Disorders A/S, priority 2023, published 2026):
Like-named read-outs stand apart in the source and are kept apart here.

Legend:
[1] = system: prepubertal children with achondroplasia; conditions: for AGV: 100 μg CNP-38/kg/week group
Method: The study enrolled a minimum of 60 male and female prepubertal children with ACH aged 2 to 10 years old. The clinical trial is listed on www.clinicaltrials.gov under the ClinicalTrials.gov Identifier: NCT04085523. The objectives of the study were as follow:
This trial is a multicenter trial consisting of two treatment periods.
Height of subjects enrolled in the study of Example 3 was measured using a wall-mounted stadiometer. The same equipment was used at all visits for the same child. All instruments were calibrated as required by local requirements or per instrument manufacturer guidance prior to use.

[2] = system: binding antibodies against CNP-38 (and CNP-22)
Method: All subjects in the trial are being monitored for binding and, if relevant, neutralizing antibodies to CNP. […] Samples are collected in all subjects at screening visit, prior to initial dose, and post-dose at 1, 3, 6, 9 months+every 3 months for the duration of the study. Samples are analyzed using a fully validated anti-CNP antibody assay.
Prior to analysis of clinical samples, the assay was fully validated following regulatory requirements from both EMAA and FDA. In this approach, biotinylated and ruthenylated CNP-38 were prepared as a master mix. Samples were incubated at minimum required dilution (MRD) in the master mix to form complex and then plated on an MSD streptavidin plate where the biotinylated CNP-38 could also bind. The samples were then detected by the ruthenium labelled CNP-38 within the bound complexes, using an MSD 5600 plate reader. The presence of anti-drug antibody present was determined by comparing the signal to a statistically derived threshold, the assay cut point.

[3] = system: prepubertal children with achondroplasia
Method: SF-10™ Health Survey for Children is a 10-item parent-completed survey that covers a wide range of domains affecting a child's functional health and well-being (QualityMetric.com), with 5 items primarily related to physical health (PhS), and 5 items primarily related to psyhocosial health (PsS).
The survey was conducted at the following time points; baseline and week 52.
SF-10 assesses, inter alia, physical health (PhS). 5 items of the SF-10 were selected for the assessment of physical health parameters as follows: • Limited in things that take some energy • Limited in bending, lifting, stooping • Limited in kind of schoolwork/activities due to physical health • Subjects health in general • How much bodily pain or discomfort
For each response provided by a subject, a value is assigned and used to calculate the overall physical summary score in accordance with established guidelines (See The SF-10 Health Survey for Children User's Guide by QualityMetric). For reference, in accordance with the User's Guide, the SF-10 scale scores were centered so that a score of 50 corresponds to an average score in a 2006 sample (a combination of general population and supplemental disability and chronic condition samples).

[4] = system: prepubertal children with achondroplasia; conditions: 50 and 100 μg/kg vs placebo, 52 weeks
Method: In the phase 2 study reported in Example 4, X-rays of the hand were taken at the placebo group (6 patients assessed), cohort 3, 50 μg/kg (9 patients assessed) and cohort 4, 100 μg/kg (7 patients assessed) and the Hand Metacarpal/Phalangeal Profile (MCPP) was assessed.

[5] = system: prepubertal children with achondroplasia; conditions: for Overall Scoliosis Incidence, Baseline: baseline (prior to treatment)
Method: X-rays (radiographs) were taken from subjects in the placebo group and cohort 4 in the Phase 2 Study trials, including those at the thoracolumbar spine (lateral and anterior-posterior/posterior-anterior (AP/PA)) and lower extremity (AP). The lateral X-rays (taken from the placebo group and the 100 μg/kg (cohort 4 group) at baseline and after 52 weeks of treatment were analyzed.
Methodology: From the spine radiographs, aspects related to spinal stenosis, spinal curvature, and spinal height were measured. To assess the size of the spinal canal in the lumbar region (L1-L5), which is smaller in ACH, interpedicular distance (IPD) and pedicle width (PW) are measured on the anterior-posterior/posterior-anterior (AP/PA) and lateral radiographs, respectively. At each level of the lumbar spine, IPD is measured as the distance between the most medial aspects of the pedicles of the spinal canal, and PW is measured from the posterior vertebral body line to the posterior laminar line. Scoliosis is assessed by measuring Cobb angles in the proximal thoracic, main thoracic, and lumbar regions of the AP/PA spine radiograph. On the lateral spine radiograph, Cobb angles for kyphosis are assessed in the thoracic (TK) and thoracolumbar (TLK) region and for lordosis in the lumbar region (LL). Spinal heights (both thoracic and total) are measured on the AP/PA spine radiograph. • Scoliosis: Cobb angles of the proximal thoracic (T1-T3), main thoracic (T2-L1), and lumbar (L1-L5) regions • Kyphosis: Cobb angles of the thoracic (T5-T12, TK) and thoracolumbar (T10-L2, TLK) regions • Lordosis: Cobb angles of the lumbar (L1-L5, LL) region • Thoracic spine height (T1 to T12) and Total spine height (T1 to S1)
As many of these parameters vary naturally during growth, published normative data from both healthy and ACH populations are being utilized to calculate Z-scores where possible. For spine kyphosis, data from Lee et al., 2012 (Journal of spinal disorders & techniques. 2012; 25(8):E259-63) and Abousamra et al. 2019 (Spine Deform. 2019 January; 7(1):163-170) were used to calculate Z-scores based on data from healthy and ACH children.
A decrease of the (Posterior Height/Middle Width) ratio is indicative of a normalization of vertebral morphology.

[6] = 50 and 100 μg/kg vs placebo, 52 weeks
[7] = cohorts 3 and 4 vs placebo, 52 weeks, initial data
[8] = single patient, after 52 weeks treatment
[9] = single patient, after 52 weeks treatment (100 μg/kg/week)
[10] = single patient, week 52, 100 μg/kg/week

## Navepegritide [Compound (1)]
[1]; 6 μg/kg/week, 52 weeks, n = 10, 95% CI [3.34, 4.84], p 0.6004 vs pooled placebo (4.35)
  AGV, LS Mean: 4.09, n = 10 cm/year
[1]; 6 μg/kg/week, n = 10, 95% CI [−0.26, 0.17], p 0.8207 vs pooled placebo (−0.08)
  Δ Height SDS (ACH-specific height SDS), LS Mean: −0.04, n = 10
[1]; 20 μg/kg/week, 52 weeks, n = 11, 95% CI [3.82, 5.22], p 0.7022 vs pooled placebo
  AGV, LS Mean: 4.52, n = 11 cm/year
[1]; 20 μg/kg/week, n = 11, 95% CI [−0.17, 0.23], p 0.4107 vs pooled placebo
  Δ Height SDS (ACH-specific height SDS), LS Mean: 0.03, n = 11
[1]; 50 μg/kg/week, 52 weeks, n = 10, 95% CI [4.43, 5.90], p 0.0849 vs pooled placebo
  AGV, LS Mean: 5.16, n = 10 cm/year
[1]; 50 μg/kg/week, n = 10, 95% CI [−0.10, 0.32], p 0.1660 vs pooled placebo
  Δ Height SDS (ACH-specific height SDS), LS Mean: 0.11, n = 10
[1]; 0 to 6 months
  AGV: 5.167 cm/year
[1]; time period 6 to 12 months
  AGV: 5.696 cm/year
[1]; 100 μg/kg/week, 52 weeks, n = 11, 95% CI [4.74, 6.11], p 0.0218 vs pooled placebo
  AGV, LS Mean: 5.42, n = 11 cm/year
[1]; 100 μg/kg/week, 52 weeks, n = 11, 95% CI [4.74, 6.11], p 0.0218 vs pooled placebo, listed as compound (1)
  AGV, LS Mean: 5.42 cm/year
[1]; 100 μg/kg/week, n = 11, 95% CI [0.02, 0.41], p 0.0283 vs pooled placebo
  Δ Height SDS (ACH-specific height SDS), LS Mean: 0.22, n = 11
[1]; 46 children switched from placebo or lower dose to 100 μg/kg/week, after one year
  growth in Open Label Extension: improved growth
[1]; Age < 5 years old, 6 μg/kg/week, n = 3, 95% CI [2.52, 6.10]
  AGV, LS Mean: 4.31, n = 3 cm/year
[1]; Age < 5 years old, 20 μg/kg/week, n = 5, 95% CI [3.30, 6.15]
  AGV, LS Mean: 4.72, n = 5 cm/year
[1]; Age < 5 years old, 50 μg/kg/week, n = 5, 95% CI [3.62, 6.52]
  AGV, LS Mean: 5.07, n = 5 cm/year
[1]; Age < 5 years old, 100 μg/kg/week, n = 3, 95% CI [4.03, 7.87]
  AGV, LS Mean: 5.95, n = 3 cm/year
[1]; Age ≥ 5 years old, 6 μg/kg/week, n = 7, 95% CI [2.87, 4.71]
  AGV, LS Mean: 3.79, n = 7 cm/year
[1]; Age ≥ 5 years old, 20 μg/kg/week, n = 6, 95% CI [3.43, 5.15]
  AGV, LS Mean: 4.29, n = 6 cm/year
[1]; Age ≥ 5 years old, 50 μg/kg/week, n = 5, 95% CI [4.39, 6.26]
  AGV, LS Mean: 5.33, n = 5 cm/year
[1]; Age ≥ 5 years old, 100 μg/kg/week, n = 8, 95% CI [4.35, 5.90]
  AGV, LS Mean: 5.12, n = 8 cm/year
[2]; 1 to 9 months of repeated weekly exposure
  anti-CNP binding antibodies: No anti-CNP binding antibodies have been detected
[2]; 57 patients followed for up to 65 weeks
  treatment emergent anti-CNP antibodies: no treatment emergent anti-CNP antibodies were detected
[2]; samples at 1, 3, 6, 9 months + every 3 months
  post-dose samples, anti-CNP antibodies: confirmed negative
[3]; 100 μg/kg (SC) weekly, week 52
  SF-10 Physical Summary Score, Wk 52 (S.E): 40.70 (6.87)
[3]; 100 μg/kg (SC) weekly, week 52, placebo −3.04 (3.82)
  SF-10 Physical Summary Score, Change from Baseline: +5.91 (1.65)
[3]; 100 μg/kg weekly, after 52 weeks of treatment
  SF-10 PsS score: improvement trend
[3]; 100 μg/kg weekly, week 52
  SF-10 PhS score compared with baseline: marked increase
[3]; 100 μg/kg/week for one year (n=19) vs placebo (n=15), p=0.002, ages 5 years and older
  SF-10 Physical Summary, treated versus placebo: statistically significant improved outcome
[3]; 100 μg/kg/week for one year vs placebo, p=0.045
  ACEM Emotional Well-being, treated versus placebo: statistically significant improved outcome
[3]; 100 μg/kg/week for one year vs placebo, p=0.047
  ACEM Daily Living Function, treated versus placebo: statistically significant improved outcome
[4]
  hand length: clear trend for dose dependent increase
[5]; 100 μg/kg/week, n 5, p < 0.05 vs placebo (ANCOVA), placebo −0.19 (0.318)
  TLK Z-score (Healthy), Week 52 Change from Baseline (Mean ± SD): −1.004 (0.614)
[5]; 100 μg/kg/week, n 6, p < 0.05 vs placebo (ANCOVA), placebo −0.052 (0.242)
  TLK Z-score (ACH), Week 52 Change from Baseline (Mean ± SD): −0.416 (0.412)
[5]; 100 μg/kg/week, n 6, placebo −[…] (2.61)
  TLK, Week 52 Change from Baseline (Mean ± SD): −7.17 (4.94) degrees
[5]; [6]
  interpedicular distance (IPD): no clear effect
  pedicular width (PW): trend for patients on treatment to have an increase
[5]; Cohort 3, 50 μg/kg
  Overall Scoliosis Incidence, After 52 weeks of Treatment: 0 out of 9
  Overall Scoliosis Incidence, Baseline: 3 out of 9
[5]; Cohort 4, 100 μg/kg
  Overall Scoliosis Incidence, After 52 weeks of Treatment: 1 out of 9
  Overall Scoliosis Incidence, Baseline: 3 out of 9
[5]; cohort 4 after 52 weeks of treatment
  thoracolumbar kyphosis: statistically significant reduction
[5]; [7]
  kyphosis Cobb Angle: trend for a dose dependent reduction
  scoliosis main thoracic Cobb Angle: trend for a dose dependent reduction
[5]; phase 2 and open label extension trial
  lumbar lordosis: slight trend for an increase
[5]; single patient one, baseline
  Patient Angle, thoracic kyphosis (TK): 11.6 degrees
[5]; [8]
  L1 vertebra LW, change from baseline: Δ4.1 mm
  L1 vertebra MH, change from baseline: Δ1.4 mm
  L1 vertebra MW, change from baseline: Δ5.9 mm
  L1 vertebra PH, change from baseline: Δ1.5 mm
[5]; [9]
  L1 vertebra LW (Lower Width): 22.9 mm
  L1 vertebra MH (Middle Height): 15.0 mm
  L1 vertebra MW (Middle Width): 14.6 mm
  L1 vertebra PH (Posterior height): 15.8 mm
  L1 vertebra PH/MW: 108 mm
[5]; single patient, after 52 weeks treatment, [~80@T12/12]
  L1 vertebra PH/MW, change from baseline: Δ−56 [~80@T12/12] mm
[5]; single patient, baseline
  L1 vertebra LW (Lower Width): 18.8 mm
  L1 vertebra MH (Middle Height): 13.6 mm
  L1 vertebra MW (Middle Width): 8.7 mm
  L1 vertebra PH (Posterior height): 14.3 mm
  L1 vertebra PH/MW: 164 mm
  Patient Angle, lumbar lordosis (LL): 58.3 degrees
  Patient Angle, thoraco-lumbar kyphosis (TLK): 24.0 degrees
[5]; single patient, baseline vs 52 weeks of treatment
  apical wedging and shape of L1 vertebra on radiographs: noted decrease in apical wedging and normalization of the L1 vertebra
[5]; single patient, baseline, reference population 3 (Abousamra 2019) 20.0 ± 12.5
  Patient Z-score TK3: −0.7
[5]; single patient, baseline, reference population 3, 18.5 ± 13.2
  Patient Z-score TLK3: 0.4
[5]; single patient, baseline, reference population 3, 66.7 ± 17.5
  Patient Z-score LL3: −0.5
[5]; single patient, baseline, reference population 5.0 ± 7.2
  Patient Z-score TLK2: 2.6
[5]; single patient, baseline, reference population 31.6 ± 9.2
  Patient Z-score TK2: −2.2
[5]; single patient, baseline, reference population 44.4 ± 9.4
  Patient Z-score LL2: 1.5
[5]; [10]
  Patient Angle, lumbar lordosis (LL): 60.2 degrees
  Patient Angle, thoracic kyphosis (TK): 12.6 degrees
  Patient Angle, thoraco-lumbar kyphosis (TLK): 9.1 degrees
[5]; single patient, week 52, 100 μg/kg/week, reference 31.6 ± 9.2
  Patient Z-score TK2: −2.1
[5]; single patient, week 52, reference 5 ± 7.2
  Patient Z-score TLK2: 0.6
[5]; single patient, week 52, reference 44.4 ± 9.4
  Patient Z-score LL2: 1.7
[5]; single patient, week 52, reference population 3, 18.5 ± 12.0
  Patient Z-score TLK3: −0.6
[5]; single patient, week 52, reference population 3, 19.7 ± 13.2
  Patient Z-score TK3: −0.5
[5]; single patient, week 52, reference population 3, 66.0 ± 15.5
  Patient Z-score LL3: −0.4
